pEC50: −log10 of the molar value. ≈ marks a conversion by molar mass, not a printed value.
Tests used:
[1] = Aqueous solubility assay, Protocol B, shake-flask method; format: physicochemical; details: 10 mM PBS buffer with 1% MeOH, kinetic from dmso stock, 10 mM PBS buffer pH 7.4, 1% MeOH, room temperature, read-out: Aqueous solubility pH 7.4 (μM) (±standard deviation), shake-flask method
Description: (§1) Aqueous solubility of compounds was determined by nephelometry or by shake-flask method as follows:
Protocol B, Shake-Flask Method:
Sample preparation: Sample and standard solution preparation is performed by mixing equal volumes of acetonitrile containing the internal standard (1 μM final concentration) with sample and calibration standard solutions (100 μl). After vigorously shaking (10 seconds) the samples are centrifuged (6000 g) for 5 minutes at 20° C. Aliquots of the particle-free supernatants are transferred to 200 μl sample vials and subsequently subjected to LC-MS/MS analysis. Assay procedure: Test concentration was 100 μM in 10 mM PBS buffer pH 7.4 with a final MeOH concentration of 1%. The volume of the incubation solution was 500 μl. Depending on each compound's solubility in MeOH, the stock concentration and the incubation concentration was adapted. The test solutions in quadruplicates were shaken at 300 rpm over a 20 hours period at room temperature, followed by centrifugation at 20000 g for 30 minutes to separate the solid phase. 100 μl of particle free sample are added to 100 μl acetonitrile containing the internal standard. The aqueous solubility of the compounds was determined by measuring the concentration of the PBS buffer supernatant by HPLC-MS/MS. Aqueous solubilities of examples and reference compounds are listed below in Table 3.

[2] = Aqueous solubility assay, Protocol A, nephelometry method; format: physicochemical; details: PBS with 5% DMSO, aqueous with cosolvent or surfactant or cyclodextrin, kinetic from dmso stock, PBS pH 7.4, 5% DMSO, 23° C.
Description: as §1
Protocol A, Nephelometry Method:
Solubility of compounds was measured in PBS (pH 7.4), 5% DMSO at 23° C. Nepheloskan Ascent (Thermo Electron Corporation) nephelometer was used for measurement of light scattering. Tested compounds were dissolved in DMSO to 10 mM. Prior to measurement the compounds were further diluted with PBS in the wells to final compound concentrations of 100, 70, 50, 35, 25, 17, 12 and <10 μg/ml.
The plates were incubated at room temperature for 24 hours to reach equilibrium and the scattered light was measured. Assay validation: Aqueous solubility of acetylsalicylic acid was determined to validate the assay. […] Aqueous solubilities of examples and reference compounds are listed below in Table 2.

[3] = molecular target: T1, human farnesoid X receptor (FXR) alpha ligand binding domain (Homo sapiens, UniProt Q96RI1); assay: FRET activity assay (ligand mediated cofactor peptide interaction, LANCE); format: biochemical; details: FXR-LBD/SRC-1 peptide interaction
T1 construct: made in house; host or cells: E. coli BL21(DE3), vector pDEST15
T1 sequence (Q96RI1 187-472 isoform Q96RI1-2): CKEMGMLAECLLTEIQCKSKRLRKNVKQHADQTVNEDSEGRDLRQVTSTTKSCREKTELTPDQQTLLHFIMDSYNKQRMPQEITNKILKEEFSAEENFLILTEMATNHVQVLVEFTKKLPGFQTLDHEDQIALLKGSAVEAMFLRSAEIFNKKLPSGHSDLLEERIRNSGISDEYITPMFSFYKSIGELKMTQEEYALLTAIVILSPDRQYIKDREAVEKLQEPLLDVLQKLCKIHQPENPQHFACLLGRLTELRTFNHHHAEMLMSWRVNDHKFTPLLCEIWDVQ
Description: Determination of a ligand mediated cofactor peptide interaction to quantify ligand binding to the nuclear receptor Farnesoid X Receptor (FXR) was performed as follows:
Preparation of human farnesoid X receptor (FXR) alpha ligand binding domain: The human FXRalpha ligand binding domain (LBD) was expressed in E. coli strain BL21(DE3) as an N-terminally glutathione-S-transferase (GST) tagged fusion protein. The DNA encoding the FXR ligand binding domain was cloned into vector pDEST15 (Invitrogen). Expression was under control of an IPTG inducible T7 promoter. The amino acid boundaries of the ligand binding domain were amino acids 187-472 of Database entry NM_005123 (RefSeq). Expression and purification of the FXR-LBD: An overnight preculture of a transformed E. coli strain was diluted 1:20 in LB-Ampicillin medium and grown at 30° C. to an optical density of OD600=0.4-0.6. Gene expression was then induced by addition of 0.5 mM IPTG. Cells were incubated an additional 6 h at 30° C., 180 rpm. Cells were collected by centrifugation (7000×g, 7 min, room temperature). Per liter of original cell culture, cells were resuspended in 10 ml lysis buffer (50 mM Glucose, 50 mM Tris pH 7.9, 1 mM EDTA and 4 mg/ml lysozyme) and left on ice for 30 min. Cells were then subjected to sonication and cell debris removed via centrifugation (22000×g, 30 min, 4° C.). Per 10 ml of supernatant 0.5 ml prewashed Glutathione 4B sepharose slurry (Qiagen) was added and the suspension kept slowly rotating for 1 h at 4° C. Glutathione 4B sepharose beads were pelleted by centrifugation (2000 g, 15 sec, 4° C.) and washed twice in wash buffer (25 mM Tris, 50 mM KCl, 4 mM MgCl2 and 1 M NaCl). The pellet was resuspended in 3 ml elution buffer per liter of original culture (elution buffer: 20 mM Tris, 60 mM KCl, 5 mM MgCl2 and 80 mM glutathione added immediately prior to use as powder). The suspension was left rotating for 15 min at 4° C., the beads pelleted and eluted again with half the volume of elution buffer than the first time. The eluates were pooled and dialysed overnight in 20 mM Hepes buffer (pH 7.5) containing 60 mM KCl, 5 mM MgCl2 as well as 1 mM dithiothreitol and 10% (v/v) glycerol. The protein was analysed by SDS-Page.
The method measures the ability of putative ligands to modulate the interaction between the purified bacterial expressed FXR ligand binding domain (LBD) and a synthetic biotinylated peptide based on residues 676-700 of SRC-1 (LCD2, 676-700). The sequence of the peptide used was B-[…]-COOH where the N-terminus was biotinylated (B). The ligand binding domain (LBD) of FXR was expressed as fusion protein with GST in BL-21 cells using the vector pDEST15. Cells were lysed by sonication, and the fusion proteins purified over glutathione sepharose (Pharmacia) according to the manufacturers instructions. […] For ease of handling and reduction of background from compound fluorescence LANCE technology makes use of generic fluorophore labels and time resolved detection Assays were done in a final volume of 25 μl in a 384 well plate, in a Tris-based buffer (20 mM Tris-HCl pH 7.5; 60 mM KCl, 5 mM MgCl2; 35 ng/μl BSA), containing 20-60 ng/well recombinantly expressed FXR-LBD fused to GST, 200-600 nM N-terminally biotinylated peptide, representing SRC1 aminoacids 676-700, 200 ng/well Streptavidin-xIAPC conjugate (Prozyme) and 6-10 ng/well Eu W1024-antiGST (Perkin Elmer). […]

solubility at 20 h [1] [µM]	solubility at 24 h [2] [µM]	pEC50 [3]	Structure (SMILES)
72.4 (≈ 36.1 µg/mL)	24 (≈ 12 µg/mL)	–	CC(C)c1onc(-c2c(Cl)cccc2Cl)c1COc1ccc(Oc2ccc(C(=O)O)cc2)cc1 [Compound A, reference compound]
188 (≈ 96.5 µg/mL)	–	≥ 6.00	Cc1cc(OCc2c(-c3c(Cl)cccc3Cl)noc2C(C)C)cnc1Oc1ccc(C(=O)O)cc1 [Example 3, 4-(5-((3-(2,6-Dichlorophenyl)-5-isopropylisoxazol-4-yl)methoxy)-3-methylpyridin-2-yloxy)benzoic acid]
